Results reported in patent US20090215812A1, “BIOMARKERS FOR EVALUATING LIKELIHOOD OF TUMOR SENSITIVITY TO AN MTOR INHIBITOR” (ARIAD GENE THERAPEUTICS, INC., priority 2005, published 2009).

Columns and labels:
[1] = test system: AN3CA; test: in vitro proliferation assay (CellTiter 96 Aqueous One Solution); type: cell-based, human; conditions: average of 10, 33 and 100 nM, 3 days incubation, relative to untreated wells
Method: (§1) A series of in vitro proliferation assays were performed on 14 human tumor-derived cell lines exposed to AP23573 at concentrations ranging from 0.01 nM to […]. Cells were plated into 96-well plates (between 750 and 5000 cells per well as per the table below), in cell culture medium containing serial dilutions of AP23573, or in the absence of AP23573 as a control, and were then incubated for 3 days.
(§2) At the end of the incubation, the number of cells in each well (cell viability) was determined using a CellTiter 96® Aqueous One Solution Cell Proliferation metabolic activity assay kit (Promega). This assay is based on the use of a reagent that monitors the total reducing environment of a population of cells. The quantity of reduced products, which is determined spectrophotometrically, is directly proportional to the number of viable cells in the culture. The percentage of cells remaining after treatment with each concentration of AP23573 was then determined relative to the number of cells remaining in the untreated wells.
(§3) For each cell line the percentage cells remaining after treatment with AP23573 reached a plateau between 1 and 10 nM. Thus the inhibitory effect of AP23573 on cell proliferation was calculated by taking the average of the percentage of cells remaining at the 10, 33 and 100 nM concentration levels. A lower percentage of cells remaining reflects a larger inhibitory effect of AP23573. The experiment was performed two or three times for each cell line and the results averaged.

[2] = test system: SKOV3; test: as above; type: cell-based, human; conditions: average of 10, 33 and 100 nM, 3 days incubation, relative to untreated wells
Method: as §1, §2, §3

[3] = test system: PC3; test: as above; type: cell-based, human; conditions: average of 10, 33 and 100 nM, 3 days incubation, relative to untreated wells
Method: as §1, §2, §3

[4] = test system: HCT116; test: as above; type: cell-based, human
Method: as §1, §2, §3

[5] = test system: HT1080; test: as above; type: cell-based, human
Method: as §1, §2, §3

[6] = test system: HEC1A; test: as above; type: cell-based, human; conditions: average of 10, 33 and 100 nM, 3 days incubation, relative to untreated wells
Method: as §1, §2, §3

[7] = test system: MDA-435S; test: as above; type: cell-based, human; conditions: average of 10, 33 and 100 nM, 3 days incubation, relative to untreated wells
Method: as §1, §2, §3

[8] = test system: ES2; test: as above; type: cell-based, human; conditions: average of 10, 33 and 100 nM, 3 days incubation, relative to untreated wells
Method: as §1, §2, §3

[9] = test system: SKBR3; test: as above; type: cell-based, human; conditions: average of 10, 33 and 100 nM, 3 days incubation, relative to untreated wells
Method: as §1, §2, §3

[10] = test system: BT474; test: as above; type: cell-based, human; conditions: average of 10, 33 and 100 nM, 3 days incubation, relative to untreated wells
Method: as §1, §2, §3

[11] = test system: MCF7; test: as above; type: cell-based, human; conditions: average of 10, 33 and 100 nM, 3 days incubation, relative to untreated wells
Method: as §1, §2, §3

[12] = test system: MDA-453; test: as above; type: cell-based, human; conditions: average of 10, 33 and 100 nM, 3 days incubation, relative to untreated wells
Method: as §1, §2, §3

[13] = test system: MDA-468; test: as above; type: cell-based, human; conditions: average of 10, 33 and 100 nM, 3 days incubation, relative to untreated wells
Method: as §1, §2, §3

[14] = test system: DU145; test: as above; type: cell-based, human; conditions: average of 10, 33 and 100 nM, 3 days incubation, relative to untreated wells
Method: as §1, §2, §3

[15] = test system: sarcoma; test: ongoing clinical trial of AP23573 in sarcoma; type: in vivo, human; conditions: number of patients
Description: The experiment is repeated several times using either mixed sets of samples that included samples from tumors of various types or using sets of samples from a single tumor type (prostate cancer, leiomyosarcoma, osteosarcoma). Some of the samples are obtained from an ongoing clinical trial of AP23573 in sarcoma, results of which are presented below: […]

[16] = test system: 14 human tumor-derived cell lines; test: in vitro proliferation assays on panel of tumor cell lines; type: cell-based
Method: as §1, §2
For each cell line the percentage cells remaining after treatment with AP23573 reached a plateau between 1 and 10 nM. Thus the inhibitory effect of AP23573 on cell proliferation was calculated by taking the average of the percentage of cells remaining at the 10, 33 and 100 nM concentration levels. […]

[17] = average of 10, 33 and 100 nM, 3 days incubation, relative to untreated wells

Compound: CO[C@H]1C[C@@H]2CC[C@@H](C)[C@@](O)(O2)C(=O)C(=O)N2CCCC[C@H]2C(=O)O[C@H]([C@H](C)C[C@@H]2CC[C@@H](OP(C)(C)=O)[C@H](OC)C2)CC(=O)[C@H](C)/C=C(\C)[C@@H](O)[C@@H](OC)C(=O)[C@H](C)C[C@H](C)/C=C/C=C/C=C/1C [AP23573]
- Percent Cells Remaining [1]: 45%
- Percent Cells Remaining [2]: 61%
- Percent Cells Remaining [3]: 51%
- Percent Cells Remaining [4, 17]: 94%
- sensitivity to AP23573 ([4]; low FKBP12 expression level): relatively resistant
- Percent Cells Remaining [5, 17]: 37%
- sensitivity to AP23573 ([5]; high FKBP12 expression level): relatively sensitive
- Percent Cells Remaining [6]: 70%
- Percent Cells Remaining [7]: 68%
- Percent Cells Remaining [8]: 63%
- Percent Cells Remaining [9]: 55%
- Percent Cells Remaining [10]: 80%
- Percent Cells Remaining [11]: 55%
- Percent Cells Remaining [12]: 58%
- Percent Cells Remaining [13]: 77%
- Percent Cells Remaining [14]: 81%
- CR/PR (complete response / partial response) ([15]; Bone Cohort (19)): 3
- PD (progressive disease) ([15]; Bone Cohort (19)): 5
- CR/PR (complete response / partial response) ([15]; Leiomyosarcoma (18)): 0
- PD (progressive disease) ([15]; Leiomyosarcoma (18)): 6
- CR/PR (complete response / partial response) ([15]; Liposarcoma (13)): 0
- PD (progressive disease) ([15]; Liposarcoma (13)): 5
- CR/PR (complete response / partial response) ([15]; Other Sarcoma (20)): 0
- PD (progressive disease) ([15]; Other Sarcoma (20)): 7
- sensitivity to AP23573 ([16]; HEC1A, BT474, MDA468, DU145, HCT116 (lower FKBP12 expression)): lower levels of sensitivity
- sensitivity to AP23573 ([16]; HT1080, PC3, ES2, SKBR3 (relatively high FKBP12 expression)): relatively high levels of sensitivity
